What was measured:
[1] = biological target: GLS1 (Homo sapiens (Human), UniProt O94925); test: GLS Enzyme Potency Assay (Glutamate Oxidase/AmplexRed coupled assay); assay type: biochemical; details: 6His tagged GLS protein (amino acids 63-669), 60 minutes reaction with glutamine
Text: (§1) The following assays were used to measure the effects of the compounds of the present invention: a) GLS Enzyme Potency Assay; b) GLS Cell Potency Assay; c) GLS Cell Proliferation Assay. During the description of the assays, generally: • i. The following abbreviations have been used: CO2=Carbon dioxide; DMEM=Dulbecco's Modified Eagle Medium; DMSO=Dimethyl sulphoxide; EDTA=Ethylenediaminetetraacetic acid; EGTA=Ethylene glycol tetraacetic acid; FCS=Foetal calf serum; h=Hour(s); NBS=Non-binding surface; SDS=Sodium dodecyl sulphate; TRIS=Tris(Hydroxymethyl)aminomethane. • ii. IC50 values were calculated using a smart fitting model in Genedata. The IC50 value was the concentration of test compound that inhibited 50% of biological activity. Assay a): GLS Enzyme Potency Assay
A Glutamate Oxidase/AmplexRed coupled assay was used to measure the ability of compounds to bind to and inhibit the activity of GLS1 in vitro. 6His tagged GLS protein (amino acids 63-669) expressed in E. Coli was purified and stored at −80° C. in aliquots. GLS1 was diluted to 2×working concentration and incubated at r.t. to allow the tetrameric/dimeric forms to reach steady state. Assay measurements were performed in buffer comprising 50 mM TRIS pH 7.8, 100 mM NaPO4, pH 7.8, 0.001% v/v Tween20. Purified recombinant GLS1 protein was diluted in assay buffer to 12 nM and pre-incubated at r.t. for 30 minutes. Test compounds were prepared by dilution in 100% DMSO to give the correct dose range for 12 point concentration response and an appropriate volume (2.5-60 nl) dispensed into 384 well micro assay plates (Greiner product code 784900) using a Labcyte Echo 555 acoustic dispenser. DMSO concentration was maintained at 2% by back filling with DMSO solution. 3 μL of diluted GLS1 protein (12 nM) was then dispensed into each well using a BioRaptr automated dispenser (Beckman-Coulter) and incubated for 15 minutes at r.t. 3 μl of 100 mM glutamine diluted in assay buffer was then added and the reaction incubated at r.t. for 60 minutes. The reaction was then stopped by addition of 45 μM 6-(2-bromoethynyl)-2,3-dimethyl-quinazolin-4-one, 75 μM Amplex Red, 0.375 units/mL Horseradish Peroxidase, 0.12 units/mL Glutamate Oxidase in 100 mM TRIS pH7.5. After 30 minutes at room temp in the dark, plates were read on a Perkin Elmer EnVision using 535/590 nm optic filters and raw data analysed using Genedata to generate IC50 values. An artefact version of the assay where the 6His tagged GLS protein and glutamine were replaced with assay buffer was also used to rule out non specific effects on the assay components.

[2] = tested on: cellular GLS activity in PC3 cells; test: GLS Cell Potency Assay (PC3 coupled assay measuring cellular glutamate depletion); assay type: cell-based; details: Homo sapiens, PC-3; PC3 cells, 6 h incubation, cellular glutamate depletion; read-out: Assay b) GLS Cell Potency Assay IC50
Text: as §1, with “The IC50 value was the concentration of test compound that inhibited 50% of biological activity.” left out
Compounds were assessed for their potential to inhibit cellular GLS activity by use of a PC3 coupled assay measuring cellular glutamate depletion. […] DMSO concentration was maintained at 0.3% by back filling with DMSO solution. PC3 cells were grown in phenol free DMEM, 10% dialyzed FCS, 2 mM glutamine and following dispersal by trypsinisation were plated at 5.6×10^3 cells per well in 40 μl of growth medium directly into the 384 well assay plates containing dispensed compound. After incubation for 6 h at 37° C., 5% CO2 growth media was aspirated and cells lysed in 15 μl of buffer containing 10 mM TRIS pH7.4, 100 mM NaCl, 1 mM EDTA, 1 mM EGTA, 1 mM NaF, 20 mM Na4P2O7, 2 mM Na3VO4, 1% Triton X-100, 10% glycerol, 0.1% SDS and 0.5% deoxycholate.

[3] = tested on: NCI-H1703 cells; test: GLS Cell Proliferation Assay (NCI-H1703); assay type: cell-based; details: Homo sapiens, 120 h; NCI-H1703 cells, 5 days incubation, Sytox Green; read-out: Assay c) GLS Cell Proliferation Assay
Text: as §1, with “The IC50 value was the concentration of test compound that inhibited 50% of biological activity.” left out
The ability of compounds to inhibit cell growth was measured using a 384 well plate NCI-H1703 cell proliferation assay. […] DMSO concentration was maintained at 0.3% by back filling with DMSO solution. Plates were incubated for 5 days at 37° C., 5% CO2, Sytox Green and Saponin added to final concentration of 2 μM and 0.25% respectively and incubated for 6 h prior to analysis. […] IC50 values were calculated by curve fitting to max inhibition of day zero growth using GeneData software analysis.

GLS1, sequence (O94925 63-669): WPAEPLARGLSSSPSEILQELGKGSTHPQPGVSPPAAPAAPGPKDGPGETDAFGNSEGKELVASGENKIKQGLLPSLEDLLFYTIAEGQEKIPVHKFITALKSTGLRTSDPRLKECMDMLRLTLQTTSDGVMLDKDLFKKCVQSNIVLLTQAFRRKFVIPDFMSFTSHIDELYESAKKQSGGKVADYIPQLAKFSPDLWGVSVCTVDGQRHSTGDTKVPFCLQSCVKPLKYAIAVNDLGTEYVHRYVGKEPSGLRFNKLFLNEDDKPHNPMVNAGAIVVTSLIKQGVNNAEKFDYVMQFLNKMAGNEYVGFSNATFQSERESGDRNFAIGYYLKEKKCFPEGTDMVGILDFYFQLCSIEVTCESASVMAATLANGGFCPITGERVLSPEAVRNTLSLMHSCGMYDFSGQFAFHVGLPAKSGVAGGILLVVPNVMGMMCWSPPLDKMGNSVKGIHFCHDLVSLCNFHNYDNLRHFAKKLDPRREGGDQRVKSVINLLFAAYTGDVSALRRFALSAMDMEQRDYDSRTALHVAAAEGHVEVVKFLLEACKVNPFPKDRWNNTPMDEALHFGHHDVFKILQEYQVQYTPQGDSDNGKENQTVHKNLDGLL

Row | IC50 [1] | IC50 [2] | SMILES | IC50 [3]
1 | 95.7 nM | 1 nM | CO[C@H](C(=O)Nc1ccc(N2CC[C@@H](Nc3cccnn3)C2)nn1)c1cccc(OC(F)(F)F)c1 [Example 2, (2S)-2-[3-(Trifluoromethoxy)phenyl]-2-methoxy-N-[6-[(3R)-3-(pyridazin-3-ylamino)pyrrolidin-1-yl]pyridazin-3-yl]acetamide] | 11 nM
2 | 30.9 nM | 7 nM | COc1ccccc1CC(=O)Nc1ccc(N2CC[C@@H](Nc3cccnn3)C2)nn1 [Example 4, 2-(2-Methoxyphenyl)-N-[6-[(3R)-3-(pyridazin-3-ylamino)pyrrolidin-1-yl]pyridazin-3-yl]acetamide] | 43 nM
3 | 25.2 nM | 1 nM | O=C(Cc1ccccc1OC(F)(F)F)Nc1ccc(N2CC[C@@H](Nc3cccnn3)C2)nn1 [Example 6, N-[6-[(3R)-3-(Pyridazin-3-ylamino)pyrrolidin-1-yl]pyridazin-3-yl]-2-[2-(trifluoromethoxy)phenyl]acetamide] | 12 nM
4 | 24.7 nM | 1 nM | CO[C@H](C(=O)Nc1ccc(N2CC[C@@H](Nc3cccnn3)C2)nn1)c1cccc(OC(F)F)c1 [Example 1, (2S)-2-[3-(Difluoromethoxy)phenyl]-2-methoxy-N-[6-[(3R)-3-(pyridazin-3-ylamino)pyrrolidin-1-yl]pyridazin-3-yl]acetamide] | 9 nM
5 | 29.8 nM | 1 nM | COc1cccc([C@H](OC)C(=O)Nc2ccc(N3CC[C@@H](Nc4cccnn4)C3)nn2)c1 [Example 3, (2S)-2-Methoxy-2-(3-methoxyphenyl)-N-[6-[(3R)-3-(pyridazin-3-ylamino)pyrrolidin-1-yl]pyridazin-3-yl]acetamide] | 3 nM
6 | 30.6 nM | 1 nM | O=C(Cc1ccccc1C(F)(F)F)Nc1ccc(N2CC[C@@H](Nc3cccnn3)C2)nn1 [Example 5, N-[6-[(3R)-3-(Pyridazin-3-ylamino)pyrrolidin-1-yl]pyridazin-3-yl]-2-[2-(trifluoromethyl)phenyl]acetamide] | 3 nM

From patent US10196382B2, “bis-Pyridazine compounds and their use in treating cancer” (AstraZeneca AB, priority 2015, dated 2019)
